# Results as given in patent US9890192B2, “Targeted nitroxide agents” (University of Pittsburgh—of the Commonwealth System of …, priority 2008, dated 2018).
# “Also recorded” adds a separate entry of the source.
# Columns and labels:
# [1] = system: p16 in primary MEFs from Ercc1−/− mouse embryos; assay: p16 immunofluorescence in Ercc1−/− MEFs under 20% oxygen; format: cell-based; conditions: 1 uM, 48 hrs
# Protocol: To test the protective activity of JP4-039, cultures of primary MEFs were prepared from Ercc1^−/− mouse embryos and grown under 20% oxygen (ambient air), which creates oxidative stress in these cells that are hypersensitive to reactive oxygen species. The cells were then either treated with a concentration of 1 uM XJB-5-131, JP4-039, JED-E71-37 or JED-E71-58, or left untreated (media), and then after 48 hrs the level of p16, a marker of irreversible cellular senescence, was measured by immunofluorescence staining.
# [2] = system: progeroid Ercc1−/Δ mice; assay: Signs of aging in progeroid Ercc1−/Δ mice; format: in vivo, mouse; conditions: 2 mg/kg intraperitoneally three times per week
# Protocol: To assess the effectiveness of XJB-5-131 in inhibiting degeneration and/or signs of aging, the compound was administered, over an 18-21 week period, progeroid Ercc1^−/Δ mice, at a dose of 2 mg/kg in sunflower oil carrier (to promote solubility) administered intraperitoneally three times per week (FIG. 32). Sunflower seed oil was administered to twin Ercc1^−/Δ mice according to the same schedule as a control. The treated and control mice were monitored twice a week for weight and symptom/sign development.
# FIG. 33 presents a summary table showing the results of the treatment with XJB-5-131 (“XJB” in this figure), relative to control (sunflower seed oil) after treatment from 5 wks of life until death. The numbers indicate the average age at onset of each age-related symptom for mice treated with XJB-5-131 or vehicle only (oil) (n=5 mice per group). […] Of note, all of the signs of neurodegeneration, including dystonia, trembling, ataxia, wasting and urinary incontinence were delayed in the treated animals, providing strong evidence that XJB-5-131 protects neurons against degenerative changes caused by oxidative stress.
# To assess the ability of XJB-5-131 to inhibit deterioration of intervertebral discs (an index of degenerative disease of the vertebra), the level of glycosaminoglycan in the discs in treated and control mice were measured, and the results are shown in FIG. 34. The intervertebral discs of treated mice contained approximately 30 percent more glycosaminoglycan relative to control mice, indicating inhibition of disc degeneration.
smiles,measurement,setting,value
CC(C)C[C@@H](/C=C/[C@H](Cc1ccccc1)C(=O)N1CCC[C@H]1C(=O)N[C@H](C(=O)N[C@@H](CCCNC(=O)OCc1ccccc1)C(=O)NC1CC(C)(C)N([O])C(C)(C)C1)C(C)C)NC(=O)OC(C)(C)C [XJB-5-131],level of p16,[1],less effective
same,age at onset of age-related symptoms,[2],significantly delayed
same,body weight / tolerability,[2],did not lose weight; also recorded: does not cause weight loss
same,"glycosaminoglycan in intervertebral discs, more relative to control mice",[2],approximately 30%
same,overall aging score,[2],significantly improved
same,"signs of neurodegeneration (dystonia, trembling, ataxia, wasting, urinary incontinence)",[2],delayed
